Calls of active or inactive are those of the source. No cut-off for these calls is given here.
Tests used:
[1] = Cmax in male Sprague-Dawley rat at 10 mg/kg, po measured upto 30 hrs by LC-MS/MS analysis; format: ADME, organism-based; conditions: in vivo
[2] = biological target: Voltage-gated inwardly rectifying potassium channel KCNH2 (Homo sapiens, UniProt Q12809); assay: Inhibition of hERG in HEK293 cells; format: toxicity, cell-based
MM1.S [3] = assay: Antiproliferative activity against human MM1.S cells assessed as inhibition of cell growth incubated for 72 hrs by celltiter-glo assay; format: functional, cell-based
BXPC-3 = assay: Antiproliferative activity against human BXPC-3 cells assessed as inhibition of cell growth incubated for 72 hrs by celltiter-glo assay; format: functional, cell-based; conditions: BXPC-3, 72 h
[4] = Half life in male Sprague-Dawley rat at 2 mg/kg, iv measured upto 30 hrs by LC-MS/MS analysis; format: ADME, organism-based; conditions: in vivo
[5] = Toxicity in NOD-SCID mouse assessed as shortening of villi in intestine at 15 mg/kg, po measured every 2 days for 21 days by H and E staining based analysis; format: organism-based; conditions: in vivo, 504 h, time 21 day
LAMA-84 = assay: Antiproliferative activity against human LAMA-84 cells assessed as inhibition of cell growth incubated for 72 hrs by celltiter-glo assay; format: functional, cell-based; conditions: LAMA-84, 72 h
SW872 = assay: Antiproliferative activity against human SW872 cells assessed as inhibition of cell growth incubated for 72 hrs by celltiter-glo assay; format: functional, cell-based; conditions: SW872, 72 h
ARH-77 = assay: Antiproliferative activity against human ARH-77 cells assessed as inhibition of cell growth incubated for 72 hrs by celltiter-glo assay; format: functional, cell-based; conditions: ARH-77, 72 h
[6] = AUC in male Sprague-Dawley rat brain at 10 mg/kg, IG measured at 6 hrs by LC-MS/MS analysis; format: ADME, organism-based; conditions: po
[7] = Toxicity in BALB/c mouse assessed as decrease in body weight at 30 mg/kg, po administered once daily for 21 days; format: organism-based; conditions: in vivo, 504 h, time 21 day
[8] = Cmax in male Sprague-Dawley rat plasma at 10 mg/kg, IG measured at 6 hrs by LC-MS/MS analysis; format: ADME, organism-based; conditions: po
[9] = Oral bioavailability in male Sprague-Dawley rat at 10 mg/kg measured upto 30 hrs by LC-MS/MS analysis; format: ADME, organism-based; conditions: in vivo
[10] = Toxicity in BALB/c mouse assessed as appearance of loose stools at 60 mg/kg, po administered once daily for 21 days; format: organism-based; conditions: in vivo, 504 h, time 21 day
MM1.S [11] = assay: Induction of apoptosis in human MM1.S cells assessed as increase in FOXO3A signal intensity; format: functional, cell-based
[12] = Metabolic stability in mouse liver microsomes assessed as intrinsic clearance measured upto 60 mins in presence of NADPH by LC/MS-MS analysis; format: ADME, Microsome; conditions: read-out: CLH
[13] = biological target: Exportin-1 (Homo sapiens) (UniProt O14980); assay: Reversible binding affinity to CRM1 in human U2OS cells incubated for 4 hrs by DAPI staining based fluorescence microscopic analysis; format: cell-based
Exportin-1 (Homo sapiens), sequence (O14980 whole entry): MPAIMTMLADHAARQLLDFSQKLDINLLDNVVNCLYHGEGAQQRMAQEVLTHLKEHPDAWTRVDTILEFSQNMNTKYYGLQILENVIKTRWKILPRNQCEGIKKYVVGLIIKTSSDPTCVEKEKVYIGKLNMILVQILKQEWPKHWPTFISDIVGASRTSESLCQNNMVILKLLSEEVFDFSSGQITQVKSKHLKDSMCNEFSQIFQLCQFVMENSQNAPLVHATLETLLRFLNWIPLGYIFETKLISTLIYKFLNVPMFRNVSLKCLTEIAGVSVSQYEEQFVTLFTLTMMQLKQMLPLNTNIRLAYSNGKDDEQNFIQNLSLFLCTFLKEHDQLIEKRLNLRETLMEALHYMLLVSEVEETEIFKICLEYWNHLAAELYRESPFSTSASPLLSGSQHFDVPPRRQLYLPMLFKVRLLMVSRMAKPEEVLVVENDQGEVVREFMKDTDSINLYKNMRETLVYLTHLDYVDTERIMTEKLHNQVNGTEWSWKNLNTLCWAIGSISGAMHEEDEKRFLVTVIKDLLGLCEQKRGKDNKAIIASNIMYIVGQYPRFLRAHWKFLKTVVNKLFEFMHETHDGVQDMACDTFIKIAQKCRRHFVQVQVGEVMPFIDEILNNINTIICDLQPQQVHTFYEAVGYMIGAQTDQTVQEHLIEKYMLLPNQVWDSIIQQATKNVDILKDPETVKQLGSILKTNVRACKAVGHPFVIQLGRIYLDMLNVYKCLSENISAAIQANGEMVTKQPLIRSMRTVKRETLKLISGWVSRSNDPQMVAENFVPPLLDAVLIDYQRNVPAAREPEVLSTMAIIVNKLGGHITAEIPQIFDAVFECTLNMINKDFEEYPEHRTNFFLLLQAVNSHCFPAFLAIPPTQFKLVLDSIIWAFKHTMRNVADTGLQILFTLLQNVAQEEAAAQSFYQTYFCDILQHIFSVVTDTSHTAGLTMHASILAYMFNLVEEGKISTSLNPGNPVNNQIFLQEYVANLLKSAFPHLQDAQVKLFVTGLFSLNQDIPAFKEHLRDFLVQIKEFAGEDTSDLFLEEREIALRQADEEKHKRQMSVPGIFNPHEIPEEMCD

[14] = Toxicity in NOD-SCID mouse assessed as decrease in villus height to crypt depth ratio at 60 mg/kg, po measured every 2 days for 21 days by H and E staining based analysis; format: organism-based; conditions: in vivo, 504 h, time 21 day
[15] = Toxicity in BALB/c mouse assessed as appearance of erectile hair at 60 mg/kg, po administered once daily for 21 days; format: organism-based; conditions: in vivo, 504 h, time 21 day
MM1.S [16] = assay: Inhibition of CRM1 protein expression in human MM1.S cells by Western blot analysis; format: functional, cell-based; conditions: dose 0.25-1.25 µM
HCT-116 = assay: Antiproliferative activity against human HCT-116 cells assessed as inhibition of cell growth incubated for 72 hrs by celltiter-glo assay; format: functional, cell-based; conditions: HCT-116, 72 h
MM1.S [17] = assay: Inhibition of CRM1 protein expression in human MM1.S cells at 0.25 to 1.25 uM by Western blot analysis; format: functional, cell-based; conditions: dose 0.25-1.25 µM, time 2-24 hrs
[18] = AUC (0 to t) in male Sprague-Dawley rat at 10 mg/kg, po measured upto 30 hrs by LC-MS/MS analysis; format: ADME, organism-based; conditions: in vivo
KMS-11 = assay: Antiproliferative activity against human KMS-11 cells assessed as inhibition of cell growth incubated for 72 hrs by celltiter-glo assay; format: functional, cell-based; conditions: KMS-11, 72 h
[19] = AUC (0 to infinity) in male Sprague-Dawley rat at 2 mg/kg, iv measured upto 30 hrs by LC-MS/MS analysis; format: ADME, organism-based; conditions: in vivo
[20] = Metabolic stability in human liver microsomes assessed as intrinsic clearance measured upto 60 mins in presence of NADPH by LC/MS-MS analysis; format: ADME, Microsome; conditions: read-out: CLH
[21] = Metabolic stability in rat liver microsomes assessed as half life measured upto 60 mins in presence of NADPH by LC/MS-MS analysis; format: ADME, Microsome
[22] = Toxicity in NOD-SCID mouse implanted with human MM1.S cells assessed as body weight loss at 15 mg/kg, po measured upto 21 days; format: organism-based; conditions: in vivo, 504 h, time < 21 day
LoVo = assay: Antiproliferative activity against human LoVo cells assessed as inhibition of cell growth incubated for 72 hrs by celltiter-glo assay; format: functional, cell-based
[23] = Metabolic stability in dog liver microsomes assessed as half life measured upto 60 mins in presence of NADPH by LC/MS-MS analysis; format: ADME, Canis lupus familiaris, Microsome
MV4-11 = assay: Antiproliferative activity against human MV4-11 cells assessed as inhibition of cell growth incubated for 72 hrs by celltiter-glo assay; format: functional, cell-based; conditions: MV4-11, 72 h
[24] = Metabolic stability in monkey liver microsomes assessed as half life measured upto 60 mins in presence of NADPH by LC/MS-MS analysis; format: ADME, Macaca mulatta, Microsome; conditions: rhesus monkey
[25] = Metabolic stability in human liver microsomes assessed as half life measured upto 60 mins in presence of NADPH by LC/MS-MS analysis; format: ADME, Microsome
[26] = Toxicity in BALB/c mouse assessed as animal death at 60 mg/kg, po measured on day 6,7 and 11; format: organism-based; conditions: in vivo, 576 h, time 24 day
[27] = AUC in male Sprague-Dawley rat plasma at 10 mg/kg, IG measured at 6 hrs by LC-MS/MS analysis; format: ADME, organism-based; conditions: po
AN3-CA = assay: Antiproliferative activity against human AN3-CA cells assessed as inhibition of cell growth incubated for 72 hrs by celltiter-glo assay; format: functional, cell-based
[28] = Metabolic stability in rat liver microsomes assessed as intrinsic clearance measured upto 60 mins in presence of NADPH by LC/MS-MS analysis; format: ADME, Microsome; conditions: read-out: CLH
[29] = Tmax in male Sprague-Dawley rat at 10 mg/kg, po measured upto 30 hrs by LC-MS/MS analysis; format: ADME, organism-based; conditions: in vivo
[30] = Metabolic stability in monkey liver microsomes assessed as intrinsic clearance measured upto 60 mins in presence of NADPH by LC/MS-MS analysis; format: ADME, Macaca mulatta, Microsome; conditions: rhesus monkey, read-out: CLH
[31] = AUC (0 to t) in male Sprague-Dawley rat at 2 mg/kg, iv measured upto 30 hrs by LC-MS/MS analysis; format: ADME, organism-based; conditions: in vivo
RPMI-8226 = assay: Antiproliferative activity against human RPMI-8226 cells assessed as inhibition of cell growth incubated for 72 hrs by celltiter-glo assay; format: functional, cell-based; conditions: RPMI-8226, 72 h
[32] = Antiproliferative activity against human ARP-1 cells assessed as inhibition of cell growth incubated for 72 hrs by celltiter-glo assay; format: functional, cell-based; conditions: ARP-1, 72 h
[33] = Metabolic stability in mouse liver microsomes assessed as half life measured upto 60 mins in presence of NADPH by LC/MS-MS analysis; format: ADME, Microsome
MM1.S [34] = assay: Induction of apoptosis in human MM1.S cells at 0.5 to 1 uM incubated for 48 hrs by Annexin V-FITC/PI staining based flow cytometry analysis; format: functional, cell-based; conditions: dose 0.5-1 µM
[35] = Toxicity in NOD-SCID mouse assessed as loss of crypt depth in intestine at 60 mg/kg, po measured every 2 days for 21 days by H and E staining based analysis; format: organism-based; conditions: in vivo, 504 h, time 21 day
[36] = Toxicity in NOD-SCID mouse assessed as hyperplasia of crypt in intestine at 60 mg/kg, po measured every 2 days for 21 days by H and E staining based analysis; format: organism-based; conditions: in vivo, 504 h, time 21 day
MOLM-13 = assay: Antiproliferative activity against human MOLM-13 cells assessed as inhibition of cell growth incubated for 72 hrs by celltiter-glo assay; format: functional, cell-based; conditions: MOLM-13, 72 h
[37] = Metabolic stability in dog liver microsomes assessed as intrinsic clearance measured upto 60 mins in presence of NADPH by LC/MS-MS analysis; format: ADME, Canis lupus familiaris, Microsome; conditions: read-out: CLH
[38] = biological target: Ran-specific GTPase-activating protein (Homo sapiens, UniProt P43487); assay: Inhibition of RANBP1 nuclear export in human U2OS cells assessed as increase in fluorescence intensity measured for 15 mins by DAPI staining based fluorescence microscopic analysis; format: cell-based
Ran-specific GTPase-activating protein, sequence (P43487 whole entry): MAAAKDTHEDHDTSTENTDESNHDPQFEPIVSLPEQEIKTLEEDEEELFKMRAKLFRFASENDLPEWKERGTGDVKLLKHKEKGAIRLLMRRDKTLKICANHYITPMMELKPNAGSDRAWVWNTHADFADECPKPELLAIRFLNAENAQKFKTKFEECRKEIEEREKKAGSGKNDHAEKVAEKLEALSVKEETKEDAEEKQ

[39] = Half life in male Sprague-Dawley rat at 10 mg/kg, po measured upto 30 hrs by LC-MS/MS analysis; format: ADME, organism-based; conditions: in vivo
[40] = AUC (0 to infinity) in male Sprague-Dawley rat at 10 mg/kg, po measured upto 30 hrs by LC-MS/MS analysis; format: ADME, organism-based; conditions: in vivo

Voltage-gated inwardly rectifying potassium channel KCNH2, sequence (Q12809 whole entry): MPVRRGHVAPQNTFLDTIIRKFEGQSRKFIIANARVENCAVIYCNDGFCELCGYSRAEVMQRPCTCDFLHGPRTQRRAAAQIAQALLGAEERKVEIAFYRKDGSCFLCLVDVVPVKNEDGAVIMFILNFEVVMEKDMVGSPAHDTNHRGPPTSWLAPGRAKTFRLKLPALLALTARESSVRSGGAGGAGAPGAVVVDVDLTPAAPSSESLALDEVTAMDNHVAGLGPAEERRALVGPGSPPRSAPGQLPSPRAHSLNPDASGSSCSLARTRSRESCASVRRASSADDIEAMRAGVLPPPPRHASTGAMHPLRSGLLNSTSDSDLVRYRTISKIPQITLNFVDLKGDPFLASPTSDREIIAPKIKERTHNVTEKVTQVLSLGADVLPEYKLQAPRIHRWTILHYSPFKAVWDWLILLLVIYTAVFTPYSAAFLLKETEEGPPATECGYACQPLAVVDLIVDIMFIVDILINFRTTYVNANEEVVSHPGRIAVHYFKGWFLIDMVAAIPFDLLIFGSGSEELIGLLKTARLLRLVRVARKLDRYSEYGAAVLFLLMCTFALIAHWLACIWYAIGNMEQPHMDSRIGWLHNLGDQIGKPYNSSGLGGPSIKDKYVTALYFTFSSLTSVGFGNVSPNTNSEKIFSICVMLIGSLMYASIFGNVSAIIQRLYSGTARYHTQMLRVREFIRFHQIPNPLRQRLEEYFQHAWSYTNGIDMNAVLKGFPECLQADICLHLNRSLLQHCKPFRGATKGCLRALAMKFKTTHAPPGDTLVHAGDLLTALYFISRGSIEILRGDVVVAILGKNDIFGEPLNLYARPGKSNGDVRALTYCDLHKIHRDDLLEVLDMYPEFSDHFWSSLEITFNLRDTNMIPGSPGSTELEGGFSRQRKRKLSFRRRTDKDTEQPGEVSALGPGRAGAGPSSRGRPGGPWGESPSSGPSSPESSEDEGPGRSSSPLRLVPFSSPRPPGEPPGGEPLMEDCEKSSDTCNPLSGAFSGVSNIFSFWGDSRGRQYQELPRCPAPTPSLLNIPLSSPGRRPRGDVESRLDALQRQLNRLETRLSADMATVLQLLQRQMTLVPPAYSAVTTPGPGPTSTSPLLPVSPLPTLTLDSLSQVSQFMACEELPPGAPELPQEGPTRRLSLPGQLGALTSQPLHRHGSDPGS

**Q.** For NC(=O)/C(=C/n1cnc(-c2cc(C(F)(F)F)cc(C(F)(F)F)c2)n1)c1cncnc1 [ELTANEXOR], which Cmax [1] is on record?
**A.** 720 ng/mL

**Q.** What about the IC50 [2] of the same molecule?
**A.** 8.2 µM

**Q.** And the IC50 (MM1.S [3])?
**A.** 84.7 nM

**Q.** And the IC50 (BXPC-3)?
**A.** 2170 nM

**Q.** What about the half-life [4] of the same molecule?
**A.** 180 min

**Q.** And the Activity [5]?
**A.** Non-toxic

**Q.** And the IC50 (LAMA-84)?
**A.** 2910 nM

**Q.** And the IC50 (SW872)?
**A.** 1090 nM

**Q.** And the IC50 (ARH-77)?
**A.** 435 nM

**Q.** What about the AUC at 6 h [6] of the same molecule?
**A.** 83.3 ng·h/mL

**Q.** What about the Activity [7] of the same molecule?
**A.** Non-toxic

**Q.** And the Cmax [8]?
**A.** 141 ng/mL

**Q.** And the bioavailability [9]?
**A.** 52%

**Q.** And the Activity [10]?
**A.** Toxic

**Q.** And the Activity (MM1.S [11])?
**A.** Active

**Q.** What about the microsomal CLint [12] of the same molecule?
**A.** 15.6 µL/min/mg

**Q.** And the Activity [13]?
**A.** Active

**Q.** What about the Activity [14] of the same molecule?
**A.** Non-toxic

**Q.** What about the Activity [15] of the same molecule?
**A.** Toxic

**Q.** What about the inhibition (MM1.S [16]) of the same molecule?
**A.** Dose-dependent-effect

**Q.** What about the IC50 (HCT-116) of the same molecule?
**A.** 130 nM

**Q.** What about the inhibition (MM1.S [17]) of the same molecule?
**A.** Time-dependent-effect

**Q.** What about the AUC(0-t) at 30 h [18] of the same molecule?
**A.** 2540 ng·h/mL

**Q.** And the IC50 (KMS-11)?
**A.** 1260 nM

**Q.** And the AUC(0-inf) [19]?
**A.** 998 ng·h/mL

**Q.** What about the microsomal CLint [20] of the same molecule?
**A.** 0.2 µL/min/mg

**Q.** And the half-life [21]?
**A.** > 120 min

**Q.** And the Activity [22]?
**A.** Toxic

**Q.** What about the IC50 (LoVo) of the same molecule?
**A.** 304 nM

**Q.** And the half-life [23]?
**A.** > 120 min

**Q.** And the IC50 (MV4-11)?
**A.** 55.6 nM

**Q.** What about the half-life [24] of the same molecule?
**A.** > 120 min

**Q.** What about the half-life [25] of the same molecule?
**A.** > 120 min

**Q.** And the Activity [26]?
**A.** Toxic

**Q.** And the AUC at 6 h [27]?
**A.** 1940 ng·h/mL

**Q.** And the IC50 (AN3-CA)?
**A.** 1170 nM

**Q.** And the microsomal CLint [28]?
**A.** 15.5 µL/min/mg

**Q.** And the Tmax [29]?
**A.** 1 h

**Q.** And the microsomal CLint [30]?
**A.** 11.8 µL/min/mg

**Q.** What about the AUC(0-t) at 30 h [31] of the same molecule?
**A.** 963 ng·h/mL

**Q.** And the IC50 (RPMI-8226)?
**A.** 217 nM

**Q.** What about the IC50 [32] of the same molecule?
**A.** 2700 nM

**Q.** And the half-life [33]?
**A.** > 120 min

**Q.** What about the Activity (MM1.S [34]) of the same molecule?
**A.** Active

**Q.** And the Activity [35]?
**A.** Non-toxic

**Q.** And the Activity [36]?
**A.** Non-toxic

**Q.** And the IC50 (MOLM-13)?
**A.** 435 nM

**Q.** And the microsomal CLint [37]?
**A.** 3.2 µL/min/mg

**Q.** And the IC50 [38]?
**A.** 550 nM

**Q.** And the half-life [39]?
**A.** 162 min

**Q.** What about the AUC(0-inf) [40] of the same molecule?
**A.** 2590 ng·h/mL

From ChEMBL document CHEMBL6083277, “Discovery of SZJK-0421: A Novel Potent, Low Toxicity, Selective Second Generation of CRM1 Inhibitor for the Treatment of Both Hematological and Solid Tumors” (J Med Chem, 2024)
